The values that follow come from patent publication US10550165B2, “Peptide for inducing regeneration of tissue and use thereof” (STEMRIM INC., priority 2011, dated 2020).

“Also recorded” adds a separate entry of the source.

The assay concerns mouse bone marrow mesenchymal stem cell line (MSC-1 cells), PDGFRα-positive. Kind of assay: Migration assay (Boyden / 48-well chemotaxis chamber) on bone marrow mesenchymal stem cell line MSC-1. The assay is classed as cell-based. The procedure:
Cells of a mouse bone marrow mesenchymal stem cell line (MSC-1 cells, established by Tamai et al. of Osaka University (PDGFRα-positive cells in bone marrow are mobilized by high mobility group box 1 (HMGB1) to regenerate injured epithelia. (Tamai et al., Proc Natl Acad Sci USA. Apr. 4, 2011))) were detached from dishes using trypsin, and collected by centrifugation at 1200 rpm and 4° C. for 10 minutes. The resulting pellet was loosened and suspended at a cell concentration of 2.0×10^6 to 3.0×10^6 cells/ml by adding Dulbecco's Modified Eagle Medium (D-MEM) containing 10% fetal bovine serum (FBS). The recombinant protein and peptides produced in HEK293 were diluted with D-MEM containing 10% FBS. The negative control used was phosphate buffered saline (PBS). An acrylic Boyden chamber was used; cells of the mouse bone marrow mesenchymal stem cell line prepared at a cell concentration of 3×10^6 cells/ml were placed in its upper layer, while a diluted protein or peptide is added to the bottom layer. More specifically, a 28 μl aliquot of a protein or peptide solution was added to each well of the bottom plate of a 48-well chemotaxis chamber (NEURO PROBE 48WELL CHEMOTAXIS CHAMBER), and a polycarbonate membrane with 8 μm pores (Neuro Probe, Inc, Cat: 866-417-0014) was placed on the bottom plate. Then, an upper plate was placed on the membrane and screwed tightly. 50 μl of cells of the mouse bone marrow mesenchymal stem cell line after concentration adjustment were added to the upper plate wells. The chamber was placed in an incubator under 5% CO2 at 37° C. After four hours, the membrane was removed from the chamber and stained with Diff-Quik (Sysmex, Cat: 16920) to detect cells that migrated through membrane pores to the lower compartment.
The peptides listed below were custom synthesized using the solid phase method by Medical & Biological Laboratories (MBL). The peptides were synthesized based on the mouse HMGB1 sequence (SEQ ID NO: 3). Synthetic peptides described in subsequent Examples were also prepared based on the mouse HMGB1 sequence. • A synthetic peptide consisting of the amino acid sequence from positions 1 to 10 of HMGB1 (1-10); • a synthetic peptide consisting of the amino acid sequence from positions 1 to 34 of HMGB1 (1-34); • a synthetic peptide consisting of the amino acid sequence from positions 37 to 62 of HMGB1 (37-62); • a synthetic peptide consisting of the amino acid sequence from positions 27 to 62 of HMGB1 (27-62); • a synthetic peptide consisting of the amino acid sequence from positions 56 to 72 of HMGB1 (56-72); • a synthetic peptide consisting of the amino acid sequence from positions 11 to 20 of HMGB1 (11-20); • a synthetic peptide consisting of the amino acid sequence from positions 11 to 25 of HMGB1 (11-25); • a synthetic peptide consisting of the amino acid sequence from positions 11 to 30 of HMGB1 (11-30); • a synthetic peptide consisting of the amino acid sequence from positions 11 to 34 of HMGB1 (11-34); • a synthetic peptide consisting of the amino acid sequence from positions 11 to 44 of HMGB1 (11-44); • a synthetic peptide consisting of the amino acid sequence from positions 17 to 44 of HMGB1 (17-44); • a synthetic peptide consisting of the amino acid sequence from positions 1 to 25 of HMGB1 (1-25); and the whole mouse HMGB1 produced in HEK293 (1-215(HEK)) as a positive control were adjusted to 100 μg/ml and placed in the lower layer of a chemotaxis chamber to assess the migration-promoting activity on bone marrow mesenchymal stem cell line (MSC-1). Results
As positive controls, centrifuged supernatant of the skin of a one-day-old mouse (one individual) incubated in PBS at 4° C. for 12 hours, and the whole mouse HMGB1 (HMGB1(HEK_1-215)) produced in HEK293 were used. […]

Where [1] appears, read: synthetic peptides, 5 μM, FIGS. 8A and 8B.
Setting [2] is: synthetic peptides, 10 μM and 5 μM, FIG. 9.
Setting [3] is: 2 μM, area of migrated cells by image analysis, FIG. 10.
[4] abbreviates: protein and peptides produced using HEK293 (mouse HMGB1), 50 μg/ml, 4 h, FIG. 2A.
Setting [5] is: peptides produced using HEK293, 5, 15 and 25 μg/ml, FIG. 3.

In the case of “(12-30): synthetic peptide consisting of the amino acid sequence from positions 12 to 30 of HMGB1 (KMSSYAFFVQTCREEHKKK; UniProt P09429 12-30, looked up, fragment)”, the migration-promoting activity result under setting [1] is given as “strong migration-promoting activity”.

As for “(13-25): synthetic peptide consisting of the amino acid sequence from positions 13 to 25 of HMGB1 (MSSYAFFVQTCRE; UniProt P09429 13-25, looked up, fragment)”, the migration-promoting activity entry under setting [1] was “weak activity”.

In the case of “(13-30): synthetic peptide consisting of the amino acid sequence from positions 13 to 30 of HMGB1 (MSSYAFFVQTCREEHKKK; UniProt P09429 13-30, looked up, fragment)”, under setting [1], the migration-promoting activity entry was “strong migration-promoting activity”.

In the case of “(14-25): synthetic peptide consisting of the amino acid sequence from positions 14 to 25 of HMGB1 (SSYAFFVQTCRE; UniProt P09429 14-25, looked up, fragment)”, under setting [1], the migration-promoting activity entry is recorded as “weak activity”.

“(14-30): synthetic peptide consisting of the amino acid sequence from positions 14 to 30 of HMGB1 (SSYAFFVQTCREEHKKK; UniProt P09429 14-30, looked up, fragment)”: under setting [1], the migration-promoting activity result was “strong migration-promoting activity”.

Turning to “(15-25): synthetic peptide consisting of the amino acid sequence from positions 15 to 25 of HMGB1 (SYAFFVQTCRE; UniProt P09429 15-25, looked up, fragment)”, under setting [1], the migration-promoting activity result is listed as “weak activity”.

On to “(15-30): synthetic peptide consisting of the amino acid sequence from positions 15 to 30 of HMGB1 (SYAFFVQTCREEHKKK; UniProt P09429 15-30, looked up, fragment)”, for which the migration-promoting activity result under setting [1] was “weak activity”.

For “(16-25): synthetic peptide consisting of the amino acid sequence from positions 16 to 25 of HMGB1 (YAFFVQTCRE; UniProt P09429 16-25, looked up, fragment)”, the migration-promoting activity entry under setting [1] is given as “weak activity”.

As to “(16-30): synthetic peptide consisting of the amino acid sequence from positions 16 to 30 of HMGB1 (YAFFVQTCREEHKKK; UniProt P09429 16-30, looked up, fragment)”, the migration-promoting activity result under setting [1] is reported as “weak activity”.

With “(17-30): synthetic peptide consisting of the amino acid sequence from positions 17 to 30 of HMGB1 (AFFVQTCREEHKKK; UniProt P09429 17-30, looked up, fragment)”, under setting [1], the migration-promoting activity result is on record as “weak activity”.

Take “(45-74): synthetic peptide consisting of the amino acids of positions 45 to 74 (CSERWKTMSAKEKGKFEDMAKADKARYERE; UniProt P09429 45-74, looked up, fragment)”: under setting [2], the migration-promoting activity result was “exhibited migration-promoting activity which was however weaker as compared to synthetic peptides (1-44) and (1-34)”.

For the molecule “(55-84): synthetic peptide consisting of the amino acids of positions 55 to 84 (KEKGKFEDMAKADKARYEREMKTYIPPKGE; UniProt P09429 55-84, looked up, fragment)”, the migration-promoting activity result under setting [2] is “exhibited migration-promoting activity which was however weaker as compared to synthetic peptides (1-44) and (1-34)”.

As to “peptide (1-44) produced in E. coli: amino acids of positions 1 to 44 of mouse HMGB1 produced using E. coli, tag removed by HRV3C (MGKGDPKKPRGKMSSYAFFVQTCREEHKKKHPDASVNFSEFSKK; UniProt P63158 1-44, looked up, fragment)”, under setting [3], the “migration-promoting activity relative to the full-length HMGB1, compared per equal mass” value is listed as “about 8 times” and the “migration-promoting activity relative to the full-length HMGB1, compared per equal mole” value was “about 1.6 times”.

B1: 1-84: peptide of positions 1 to 84 of mouse HMGB1, produced using HEK293 (protein, UniProt P63158 1-84, looked up, fragment)
chain: MGKGDPKKPRGKMSSYAFFVQTCREEHKKKHPDASVNFSEFSKKCSERWKTMSAKEKGKFEDMAKADKARYEREMKTYIPPKGE
As for B1, under setting [4], the migration-promoting activity result is “showed migration-promoting activity”.

B2: 85-169: peptide of positions 85 to 169 of mouse HMGB1, produced using HEK293 (protein, UniProt P63158 85-169, looked up, fragment)
chain: TKKKFKDPNAPKRPPSAFFLFCSEYRPKIKGEHPGLSIGDVAKKLGEMWNNTAADDKQPYEKKAAKLKEKYEKDIAAYRAKGKPD
For B2, the migration-promoting activity result under setting [4] is reported as “did not show detectable migration-promoting activity”.

B3: 2-215: human HMGB1 positions 2 to 215 produced in E. coli, nearly the full length, positive control (protein, UniProt P09429 2-215, looked up, fragment)
chain: GKGDPKKPRGKMSSYAFFVQTCREEHKKKHPDASVNFSEFSKKCSERWKTMSAKEKGKFEDMAKADKARYEREMKTYIPPKGETKKKFKDPNAPKRPPSAFFLFCSEYRPKIKGEHPGLSIGDVAKKLGEMWNNTAADDKQPYEKKAAKLKEKYEKDIAAYRAKGKPDAAKKGVVKAEKSKKKKEEEEDEEDEEDEEEEEDEEDEDEEEDDDDE
For B3, the migration-promoting activity result (human HMGB1 fragments produced in E. coli, 2 μM, FIG. 18B) is given as “showed migration-promoting activity on bone marrow mesenchymal stem cells”.

B4: 45-215: peptide of positions 45 to 215 of HMGB1, produced using HEK293 (protein, UniProt P09429 45-215, looked up, fragment)
chain: CSERWKTMSAKEKGKFEDMAKADKARYEREMKTYIPPKGETKKKFKDPNAPKRPPSAFFLFCSEYRPKIKGEHPGLSIGDVAKKLGEMWNNTAADDKQPYEKKAAKLKEKYEKDIAAYRAKGKPDAAKKGVVKAEKSKKKKEEEEDEEDEEDEEEEEDEEDEDEEEDDDDE
With B4, the migration-promoting activity result under setting [5] is listed as “exhibited migration-promoting activity in a concentration-dependent manner; also recorded: stronger as compared to 63-215”.

B5: 63-215: peptide of positions 63 to 215 of HMGB1, produced using HEK293 (protein, UniProt P63158 63-215, looked up, fragment)
chain: MAKADKARYEREMKTYIPPKGETKKKFKDPNAPKRPPSAFFLFCSEYRPKIKGEHPGLSIGDVAKKLGEMWNNTAADDKQPYEKKAAKLKEKYEKDIAAYRAKGKPDAAKKGVVKAEKSKKKKEEEDDEEDEEDEEEEEEEEDEDEEEDDDDE
Turning to B5, the migration-promoting activity entry under setting [5] is recorded as “exhibited migration-promoting activity in a concentration-dependent manner”.

B6: 1-62: peptide comprising the amino acid sequence of positions 1 to 62, produced using HEK293 (protein, UniProt P63158 1-62, looked up, fragment)
chain: MGKGDPKKPRGKMSSYAFFVQTCREEHKKKHPDASVNFSEFSKKCSERWKTMSAKEKGKFED
B6: the “activity of promoting the migration of MSC-1” value (peptides produced using HEK293, concentration not stated) is given as “showed the activity of promoting the migration of bone marrow mesenchymal stem line MSC-1”.
